Like-named read-outs stand apart in the source and are kept apart here.
Tests used:
[1] = Maximum tolerated dose in mice; conditions: female, mouse, in vivo; single intravenous injection, non-tumor bearing athymic nude mice
Experimental: To determine the MTD, a standard assay dose escalation study was performed. Non-tumor bearing, female, athymic nude mice were injected once with RC16 by the tail vein starting with 0.5 mg/kg. The doses were escalated by 0.25 mg/kg until MTD was achieved. Following convention, each dose was tested on a cohort of 5 mice in individual independent experiments. MTD was defined as the highest dose that could be given resulting in no drug-related moribund state or death or body weight loss ≥ 20% in the first 7 days. Other signs of toxicity such as unusual mouse behavior, lack of movement and poor posture were also monitored. Mice were weighed and observed 3 times per week for any signs of toxicity.

WIDr = assay: MTT cell proliferation assay, WIDr; format: cell-based; conditions: Homo sapiens, adult tumor cell line, read-out: Cell killing activity IC50
Experimental: (§1) Cells were plated in 96-well tissue culture plates at a density of 1 × 10^3 cells/well, allowed to attach 24 h, and then left untreated or treated with growth medium containing different concentrations of the tested RCn compounds previously dissolved in PBS. After different time periods the cell vitality was determined by MTT assay according to the manufacture’s instruction (Promega). Results are reported as the micromolar concentration of RCn reducing cell survival to 50% (IC50).

S462TY = assay: MTT cell proliferation assay, S462TY; format: cell-based; conditions: Homo sapiens, Malignant Peripheral Nerve Sheath Tumor, read-out: Cell killing activity IC50
Experimental: as §1

143.98.2 = assay: MTT cell proliferation assay, 143.98.2; format: cell-based; conditions: Homo sapiens, 143.98.2, Osteosarcoma, read-out: Cell killing activity IC50
Experimental: as §1

SK-N-AS = assay: MTT cell proliferation assay, SK-N-AS; format: cell-based; conditions: Homo sapiens, Neuroblastoma, read-out: Cell killing activity IC50
Experimental: as §1

[2] = system: nude mice bearing CHLA-20 tumors; assay: Biodistribution study (IVIS imaging); format: in vivo, mouse; conditions: RC16 labelled with Cell-Vue Maroon
Experimental: A pilot biodistribution study using one animal per timepoint was performed to minimize the number of experimental animals. Female athymic nude mice were subcutaneously implanted with 5.0 × 10^6 CHLA-20 cells. When tumors became palpable (approximately 5 mm in diameter), mice were treated with i.v. injections of RC16 labelled with Cell-Vue Maroon (dye:RC16, 1:100 mol:mole) at a dose of 1 mg/kg. […] The mice were then humanely euthanized by CO2 asphyxiation. Organs were removed, weighed and used for quantitative optical imaging by the IVIS system.

MDA-MB-231 = assay: MTT cell proliferation assay, MDA-MB-231; format: cell-based; conditions: Homo sapiens, MDA-MB-231, adult tumor cell line, read-out: Cell killing activity IC50
Experimental: as §1

[3] = Pilot pharmacokinetic study in mice; format: in vivo, mouse; conditions: for AUC(0-t): read-out: AUC0-24
Experimental: To establish a standard assay for RC16 detection and the half-life of RC16 in murine blood, a basic pilot pharmacokinetic study was performed using 1 animal per timepoint. Non-tumor bearing, female, athymic nude mice were treated with RC16 by i.v. or p.o.at doses of 1 mg/kg and 2 mg/kg, respectively. At 2, 4, 6, 12, 24 and 48 h post RC16 administration, a single mouse was anesthetized in an induction chamber with 5.0% isoflurane and an O2 flow rate of 0.8 L/min. Each mouse was transferred to a nose cone supplying 5.0% isoflurane with a O2 flow rate of 0.8 L/min. After confirming sedation by testing hind footpads, each mouse was subjected to exsanguination by cardiac puncture. Blood samples were collected in BD Microtainers (BD, Franklin Lakes, NJ). Plasma was separated by centrifugation at 2000×g for 10 min at 4°C and stored at −80°C until analysis. The RC16 concentration in plasma was determined by liquid LC-MS/MS.
Chromatographic separation was achieved using a Thermo Scientific Accela UHPLC system with HTS PAL autosampler and an Agilent ZORBAX Extend C18 column (50 × 2.1 mm I.D, 3.5 μm particle size) with a C18 guard cartridge maintained at 35°C. A 6.0 min linear gradient program with water/0.3% formic acid as mobile phase A and acetonitrile/0.3% formic acid as mobile phase B at a constant flow rate of 400 μL/min was applied for elution: 0.0 min 25% B, 1.0 min 25% B, 3.0 min 95% B, 4.5 min 95% B, 4.6 min 25% B and 6.0 min 25% B. The autosampler sample draw was set to 4°C, and a divert valve was used (0.0–2.0 min) to prevent early eluting compounds from entering the MS. Selective reaction monitoring with unit resolution was used for MS detection under positive mode. Transition channels from the protonated molecular ion to selected product ion were 377.33 > 153.15 for RC16 and 251.20 > 153.15 for internal standard RC7, respectively. Parameters optimized with a direct infusion of analyte and IS using a syringe pump were as follows: spray voltage, 5000 V; sheath gas and auxiliary gas, 25 and 15 (arbitrary unit), respectively; capillary temperature, 325°C; collision gas pressure, 1.5mTorr and skimmer offset, 10 eV. Tube lens offset was 100 eV for both RC16 and RC7, respectively. Scan time was 0.03 s. Collision energies were 40 eV for RC16 and 33 eV for RC7. Thermo Scientific LCQuan software was employed for system control and data processing.

Rh41 = assay: MTT cell proliferation assay, Rh41; format: cell-based; conditions: Homo sapiens, Rh41, Rhabdomyosarcoma, read-out: Cell killing activity IC50
Experimental: as §1

HUVEC = assay: MTT cell proliferation assay, HUVEC; format: cell-based; conditions: Homo sapiens, normal cells, read-out: Cell killing activity IC50
Experimental: as §1

CCCCCCCCCCCCCCC1CN2CCCN3CCCCCC132 (centres unmarked) [RC16, 2-tetradecyl-4,8-diazatricyclo[6.5.0.0^1,^4]tridecane]
MTD at 7 days [1]: 4 mg/kg | IC50 (WIDr; 24 h): 7300 nM | IC50 (WIDr; 48 h): 6020 nM | IC50 (S462TY; 24 h): 1110 nM | IC50 (S462TY; 48 h): 760 nM | IC50 (143.98.2; 24 h): 500 nM | IC50 (143.98.2; 48 h): 320 nM | IC50 (SK-N-AS; 24 h): 880 nM | IC50 (SK-N-AS; 48 h): 670 nM | Organ fluorescence intensity (biodistribution) ([2]; 1 mg/kg i.v., 12, 24 and 48 h): stomach, intestine and liver showed the highest fluorescence intensity | RC16 level in tumors over time ([2]; 1 mg/kg i.v., CHLA-20 tumors): remained constant over time | IC50 (MDA-MB-231; 24 h): 2960 nM | IC50 (MDA-MB-231; 48 h): 1670 nM | half-life ([3]; female, athymic nude, mouse, plasma, iv, 1 mg/kg i.v., nude mice, read-out: Half-life (converted)): 5.4 h | bioavailability ([3]; female, athymic nude, mouse, plasma, po, 2 mg/kg, estimated from pilot pharmacokinetic data): ~6% | Cmax ([3]; female, athymic nude, mouse, plasma, 2 mg/kg oral, at 4 h, nude mice, read-out: Maximum observed plasma concentration (Cmax)): 12.5 ng/mL | half-life ([3]; female, athymic nude, mouse, plasma, 2 mg/kg oral, non-compartmental analysis, nude mice, read-out: Apparent half-life (converted)): 5.2 h | AUC(0-t) ([3]; female, athymic nude, mouse, plasma, IV, 1 mg/kg, nude mice): 1390 ng·h/mL | Cmax ([3]; female, athymic nude, mouse, plasma, IV, 1 mg/kg, nude mice, read-out: Cmax): 153 ng/mL | AUC(0-t) ([3]; female, athymic nude, mouse, plasma, PO, 2 mg/kg, nude mice): 160 ng·h/mL | concentration at 2 h ([3]; female, athymic nude, plasma, intravenous, 1 mg/kg i.v., 2 h, nude mice, 1 mouse per time point): 153 ng/mL | concentration at 24 h ([3]; female, athymic nude, plasma, intravenous, 1 mg/kg i.v., nude mice, 1 mouse per time point): 11.4 ng/mL | concentration at 24 h ([3]; female, athymic nude, plasma, 2 mg/kg oral, nude mice, 1 mouse per time point): 0.5 ng/mL | concentration at 48 h ([3]; female, athymic nude, plasma, 2 mg/kg oral, 48 h, nude mice, 1 mouse per time point): 4.6 ng/mL | Achieved plasma concentrations ([3]; i.v. dose of 1 mg/kg): 150 to 200 ng/mL | IC50 (Rh41; 24 h): 250 nM | IC50 (Rh41; 48 h): 150 nM | IC50 (HUVEC; 24 h): 10600 nM | IC50 (HUVEC; 48 h): 9650 nM

From paper PMC5040747, “Preparation and Evaluation of a Novel Class of Amphiphilic Amines as Antitumor Agents and Nanocarriers for Bioactive Molecules” (Pharmaceutical Research, 2016)
